In patent US20250340529A1, “Heterocyclic Compounds as Immunomodulators of PD-L1 Interactions” (Ascletis BioScience Co., Ltd, priority 2021, published 2025):

Columns and labels:
[1] = molecular target: extracellular domains of PD-L1 (Homo sapiens (Human), UniProt Q9NZQ7); assay: PD-L1 dimerization (biochemical protein-protein interaction assay); settings: PDL1-Eu and PDL1-A2, 25° C., 120 min
Protocol: Compounds were tested in biochemical protein-protein interaction assays to determine if they can specifically dimerize the extracellular domains of PD-L1. • (1) Dilute cpd 1:3 in succession in DMSO for each column for 10±0 pts (refer to dilution plate map) • (2) Transfer 0.2 μL cpds solution in each row to 384 assay plate using Echo, each column containing 2 replicates (refer to assay plate map). • (3) Add 20 μL prepared mixture include PDL1-Eu and PDL1-A2 solution to assay plate, centrifuge at 1000 rpm for 1 min. • (4) Incubate at 25° C. for 120 min. • (5) Read fluorescence signal on Envision 2104 plate reader. • (6) Read the Ratio (665 nm/615 nm) signal on Envision. • (7) Analyze the raw data using the equation (V. Data analysis)

[2] = molecular target: PD-L1/CHO-K1 cells (Homo sapiens (Human), UniProt Q9NZQ7); assay: PD-L1 internalization (FACS, PD-L1/CHO-K1 cells); type: cell-based; settings: % activation of PD-L1 internalization = 1 − PD-L1 signal; 17 hours incubation
Chain of PD-L1/CHO-K1 cells (Q9NZQ7 19-290): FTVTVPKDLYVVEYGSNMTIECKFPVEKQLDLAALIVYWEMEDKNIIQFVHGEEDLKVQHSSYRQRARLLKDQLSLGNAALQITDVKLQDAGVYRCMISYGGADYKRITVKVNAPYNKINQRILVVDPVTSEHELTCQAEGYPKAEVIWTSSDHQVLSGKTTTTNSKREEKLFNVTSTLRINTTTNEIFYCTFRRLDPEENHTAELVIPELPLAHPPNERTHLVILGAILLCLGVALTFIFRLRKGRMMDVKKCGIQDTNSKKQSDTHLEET
Procedure, shortened: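 PD-L1/CHO-K1 cells treated 17 h at 37 °C with compound (0.2% DMSO final), then surface PD-L1 stained with PE anti-CD274 and read by flow cytometry. Signal normalized to vehicle (100%) and unstained control (0%); internalization = 1 − normalized PD-L1 signal.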

Chain of extracellular domains of PD-L1 (Q9NZQ7 19-238): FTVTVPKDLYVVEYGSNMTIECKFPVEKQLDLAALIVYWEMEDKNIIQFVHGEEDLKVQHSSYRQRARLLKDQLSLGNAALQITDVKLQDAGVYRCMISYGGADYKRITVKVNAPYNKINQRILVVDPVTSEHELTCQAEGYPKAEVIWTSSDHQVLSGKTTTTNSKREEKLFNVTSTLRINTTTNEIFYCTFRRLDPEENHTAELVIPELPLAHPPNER

Row | Structure (SMILES) | EC50 [1] [nM] | Internalization [2] [%]
1 | O=C(O)[C@H](CO)NCCN1C(=O)COc2cc(-c3cccc(-c4cccc(-c5ccc6c(c5)OCC(=O)N6CCN[C@@H](CO)C(=O)O)c4Cl)c3Cl)ccc21 [Compound 465] | 77.9 | 67.00
2 | O=C1COc2cc(-c3cccc(-c4cccc(-c5ccc6c(c5)OCC(=O)N6C[C@H]5CCCN5)c4Cl)c3Cl)ccc2N1C[C@H]1CCCN1 [Compound 529] | – | 98.10
